Measurements reported in patent publication US12630547B2, “RAS protein degraders, pharmaceutical compositions thereof, and their therapeutic applications” (BioTheryX, Inc., priority 2019, dated 2026).

Assays:
Type in all cases: cell-based
MOLM-13 cells = test: Cell viability assay (CELLTITER-GLO), MOLM-13 cells; details: Table 2, compound at 10 μM, 3 days; for viability at 10 µM: Homo sapiens, MOLM-13, 72 h, read-out: Effect on MOLM-13 cell viability (% DMSO)
Summary of the method: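 MV-4-11 and MOLM-13 cells in RPMI 1640/10% FBS were seeded at 4,000 cells/well and exposed to compound (10 μM or 1 μM) or DMSO for 3 days at 37 °C, 5% CO2. CellTiter-Glo luminescence gave viability as % DMSO, binned into ranges A (<10%) through D (≥50%).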

H358 cells = test: Cell viability assay (CELLTITER-GLO), H358 cells; details: Table 4; 3 days
Summary of the method: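 H358 cells (RPMI 1640, 10% FBS), 4,000 per well, exposed to compound for 3 days at 37 °C, 5% CO2; viability by CellTiter-Glo luminescence. Single-dose viability as % DMSO at 10 or 1 μM, binned A (<10%) to D (≥50%); IC50 binned A (≤1 μM) to D (>10 μM).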

H23 cells = test: Cell viability assay (CELLTITER-GLO), H23 cells; details: Table 4; 3 days
Summary of the method: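 H23 cells in RPMI 1640 with 10% FBS, 4,000 cells/well, exposed to compound or DMSO for 3 days at 37° C, 5% CO2. Viability read by CellTiter-Glo luminescence after 10 min. IC50 reported in potency bins.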

For `C=C(Cl)C(=O)N1CCN(c2ncnc3c(F)c(-c4c(F)cccc4OCCCCCCCN4CCC(c5cc6c(cc5F)C(=O)N(C5CCC(=O)NC5=O)C6)CC4)c(Cl)cc23)CC1` (stereo not drawn) [Compound 107, 3-(5-(1-(7-(2-(6-Chloro-4-(4-(2-chloroacryloyl)piperazin-1-yl)-8-fluoroquinazolin-7-yl)-3-fluorophenoxy)heptyl)piperidin-4-yl)-6-fluoro-1-oxoisoindolin-2-yl)piperidine-2,6-dione], the viability at 10 µM (MOLM-13 cells) was less than 10%, the “Inhibition of H358 cells, IC50 (class)” value (H358 cells) was “A′” and the “Inhibition of H23 cells, IC50 (class)” value (H23 cells) was “A′”.
`CCC(=O)N1CCN(c2ncnc3c(F)c(-c4c(F)cccc4OCCCNCc4ccc(COc5cccc6c5CN([C@H]5CCC(=O)NC5=O)C6=O)cc4)c(Cl)cc23)CC1` [Compound 63, (3S)-3-(4-((4-(((3-(2-(6-Chloro-8-fluoro-4-(4-propionylpiperazin-1-yl)quinazolin-7-yl)-3-fluorophenoxy)propyl)amino)methyl)benzyl)oxy)-1-oxoisoindolin-2-yl)piperidine-2,6-dione] was tested, and the viability at 10 µM (MOLM-13 cells) was 10 to 25%, the “Inhibition of H358 cells, IC50 (class)” value (H358 cells) was “C′” and the “Inhibition of H23 cells, IC50 (class)” value (H23 cells) was “C′”.
For `C=C(Cl)C(=O)N1C[C@@H]2C(=O)N(CCCCCCCN3CCC(c4cc(F)cc5c4CN(C4CCC(=O)NC4=O)C5=O)CC3)c3cnc4c(F)c(-c5c(O)cccc5F)c(Cl)cc4c3N2C[C@H]1C` (stereo partly drawn) [Compound 125, 3-(4-(1-(7-((2R,4aR)-11-Chloro-3-(2-chloroacryloyl)-9-fluoro-10-(2-fluoro-6-hydroxyphenyl)-2-methyl-5-oxo-1,2,3,4,4a,5-hexahydro-6H-pyrazino[1′,2′:4,5]pyrazino[2,3-c]quinolin-6-yl)heptyl)piperidin-4-yl)-6-fluoro-1-oxoisoindolin-2-yl)piperidine-2,6-dione], the viability at 10 µM (MOLM-13 cells) was less than 10%, the “Inhibition of H358 cells, IC50 (class)” value (H358 cells) was “B′” and the “Inhibition of H23 cells, IC50 (class)” value (H23 cells) was “B′”.
`CC/C=C(\Cl)C(=O)N1CCN(c2ncnc3c(F)c(-c4c(F)cccc4OCCCCCCCN4CCC(c5cc(F)cc6c5CN(C5CCC(=O)NC5=O)C6=O)CC4)c(Cl)cc23)CC1` (stereo not drawn) [Compound 98, (Z)-3-(4-(1-(7-(2-(6-Chloro-4-(4-(2-chloropent-2-enoyl)piperazin-1-yl)-8-fluoroquinazolin-7-yl)-3-fluorophenoxy)heptyl)piperidin-4-yl)-6-fluoro-1-oxoisoindolin-2-yl)piperidine-2,6-dione] was tested, and the viability at 10 µM (MOLM-13 cells) was 25 to 50%, the “Inhibition of H358 cells, IC50 (class)” value (H358 cells) was “B′” and the “Inhibition of H23 cells, IC50 (class)” value (H23 cells) was “B′”.
For `C=C(Cl)C(=O)N1CCN(c2ncnc3cc(-c4c(F)cccc4OCCCCCCCN4CCC(c5cccc6c5CN(C5CCC(=O)NC5=O)C6=O)CC4)c(Cl)cc23)CC1` (stereo not drawn) [Compound 105, 3-(4-(1-(7-(2-(6-Chloro-4-(4-(2-chloroacryloyl)piperazin-1-yl)quinazolin-7-yl)-3-fluorophenoxy)heptyl)piperidin-4-yl)-1-oxoisoindolin-2-yl)piperidine-2,6-dione], the viability at 10 µM (MOLM-13 cells) was less than 10%, the “Inhibition of H358 cells, IC50 (class)” value (H358 cells) was “A′” and the “Inhibition of H23 cells, IC50 (class)” value (H23 cells) was “A′”.
`C=C(Cl)C(=O)N1CCN(c2ncnc3c(F)c(-c4c(F)cccc4OCCC4CCC(CCN5CCC(c6cc(F)cc7c6CN(C6CCC(=O)NC6=O)C7=O)CC5)CC4)c(Cl)cc23)CC1` (stereo not drawn) [Compound 116, 3-(4-(1-(2-(4-(2-(2-(6-Chloro-4-(4-(2-chloroacryloyl)piperazin-1-yl)-8-fluoroquinazolin-7-yl)-3-fluorophenoxy)ethyl)cyclohexyl)ethyl)piperidin-4-yl)-6-fluoro-1-oxoisoindolin-2-yl)piperidine-2,6-dione] was tested, and the “Effect on MOLM-13 cell viability (% DMSO)” value (MOLM-13 cells) was “A (“A” represents a % viability value of less than 10%)”, the “Inhibition of H358 cells, IC50 (class)” value (H358 cells) was “A′” and the “Inhibition of H23 cells, IC50 (class)” value (H23 cells) was “A′”.
In the case of `C=C(Cl)C(=O)N1CCN(c2ncnc3c(F)c(-c4c(F)cccc4OCCCCCCCN4CCC(c5cc(F)cc6c5CN(C5CCC(=O)NC5=O)C6=O)CC4)c(Cl)cc23)CC1` (stereo not drawn) [Compound 43, 3-(4-(1-(7-(2-(6-Chloro-4-(4-(2-chloroacryloyl)piperazin-1-yl)-8-fluoroquinazolin-7-yl)-3-fluorophenoxy)heptyl)piperidin-4-yl)-6-fluoro-1-oxoisoindolin-2-yl)piperidine-2,6-dione], the viability at 10 µM (MOLM-13 cells) is reported as less than 10%, the “Inhibition of H358 cells, IC50 (class)” value (H358 cells) is reported as “A′” and the “Inhibition of H23 cells, IC50 (class)” value (H23 cells) is reported as “A′”.
`C=C(Cl)C(=O)N1CCN(c2ncnc3c(F)c(-c4c(F)cccc4OCCCCCCCN4CCC(c5cc6c(cc5F)C(=O)N(C5CCC(=O)NC5=O)C6)CC4)c(Cl)cc23)C[C@H]1CC#N` (stereo partly drawn) [Compound 123, 2-((2R)-4-(6-Chloro-7-(2-((7-(4-(2-(2,6-dioxopiperidin-3-yl)-6-fluoro-1-oxoisoindolin-5-yl)piperidin-1-yl)heptyl)oxy)-6-fluorophenyl)-8-fluoroquinazolin-4-yl)-1-(2-chloroacryloyl)-piperazin-2-yl)acetonitrile] was tested, and the viability at 10 µM (MOLM-13 cells) was less than 10%, the “Inhibition of H358 cells, IC50 (class)” value (H358 cells) was “A′” and the “Inhibition of H23 cells, IC50 (class)” value (H23 cells) was “A′”.
`C=C(Cl)C(=O)N1CCN(c2ncnc3c(F)c(-c4c(F)cccc4OCCCCCN4CCC(c5cc(F)cc6c5CN(C5CCC(=O)NC5=O)C6=O)CC4)c(Cl)cc23)CC1` (stereo not drawn) [Compound 103, 3-(4-(1-(5-(2-(6-Chloro-4-(4-(2-chloroacryloyl)piperazin-1-yl)-8-fluoroquinazolin-7-yl)-3-fluorophenoxy)pentyl)piperidin-4-yl)-6-fluoro-1-oxoisoindolin-2-yl)piperidine-2,6-dione] was tested, and the viability at 10 µM (MOLM-13 cells) was less than 10%, the “Inhibition of H358 cells, IC50 (class)” value (H358 cells) was “A′” and the “Inhibition of H23 cells, IC50 (class)” value (H23 cells) was “A′”.
`C=CC(=O)N1CCN(c2nc(OCCCCCCCN3CCC(c4cc(F)cc5c4CN(C4CCC(=O)NC4=O)C5=O)CC3)nc3c2CCN(c2cc(O)cc4ccccc24)C3)CC1` (stereo not drawn) [Compound 75, 3-(4-(1-(7-((4-(4-Acryloylpiperazin-1-yl)-7-(3-hydroxynaphthalen-1-yl)-5,6,7,8-tetrahydropyrido[3,4-d]pyrimidin-2-yl)oxy)heptyl)piperidin-4-yl)-6-fluoro-1-oxoisoindolin-2-yl)piperidine-2,6-dione] was tested, and the viability at 10 µM (MOLM-13 cells) was 25 to 50%, the “Inhibition of H358 cells, IC50 (class)” value (H358 cells) was “C′” and the “Inhibition of H23 cells, IC50 (class)” value (H23 cells) was “B′”.
For `C=C(Cl)C(=O)N1CCN(c2nc(OCCN(C)C)nc3c(F)c(-c4c(F)cccc4OCCCCCCCN4CCC(c5cc(F)cc6c5CN(C5CCC(=O)NC5=O)C6=O)CC4)c(Cl)cc23)CC1` (stereo not drawn) [Compound 115, 3-(4-(1-(7-(2-(6-Chloro-4-(4-(2-chloroacryloyl)piperazin-1-yl)-2-(2-(dimethylamino)-ethoxy)-8-fluoroquinazolin-7-yl)-3-fluorophenoxy)heptyl)piperidin-4-yl)-6-fluoro-1-oxoisoindolin-2-yl)piperidine-2,6-dione], the viability at 10 µM (MOLM-13 cells) was less than 10%, the “Inhibition of H358 cells, IC50 (class)” value (H358 cells) was “B′” and the “Inhibition of H23 cells, IC50 (class)” value (H23 cells) was “A′”.
In the case of `CCC(=O)N1CCN(c2ncnc3c(F)c(-c4c(F)cccc4OCCCCCCCN4CCC(c5scc6c5CN(C5CCC(=O)NC5=O)C6=O)CC4)c(Cl)cc23)CC1` (stereo not drawn) [Compound 71, 3-(1-(1-(7-(2-(6-chloro-8-fluoro-4-(4-propionylpiperazin-1-yl)quinazolin-7-yl)-3-fluorophenoxy)heptyl)piperidin-4-yl)-4-oxo-4H-thieno[3,4-c]pyrrol-5(6H)-yl)piperidine-2,6-dione], the viability at 10 µM (MOLM-13 cells) is reported as less than 10%, the “Inhibition of H358 cells, IC50 (class)” value (H358 cells) is reported as “B′” and the “Inhibition of H23 cells, IC50 (class)” value (H23 cells) is reported as “B′”.
For `C=CC(=O)N1CCN(c2nc(=O)n(-c3ccccc3C(C)C)c3nc(-c4c(F)cccc4OCCCCCCCN4CCC(c5cc(F)cc6c5CN(C5CCC(=O)NC5=O)C6=O)CC4)c(F)cc23)[C@@H](C)C1` (stereo partly drawn) [Compound 72, 3-(4-(1-(7-(2-(4-((S)-4-Acryloyl-2-methylpiperazin-1-yl)-6-fluoro-1-(2-isopropylphenyl)-2-oxo-1,2-dihydropyrido[2,3-d]pyrimidin-7-yl)-3-fluorophenoxy)heptyl)piperidin-4-yl)-6-fluoro-1-oxoisoindolin-2-yl)piperidine-2,6-dione], the viability at 10 µM (MOLM-13 cells) was less than 10%, the “Inhibition of H358 cells, IC50 (class)” value (H358 cells) was “A′” and the “Inhibition of H23 cells, IC50 (class)” value (H23 cells) was “B′”.
`CC(C)/C=C(\Cl)C(=O)N1CCN(c2ncnc3c(F)c(-c4c(F)cccc4OCCCCCCCN4CCC(c5cc(F)cc6c5CN(C5CCC(=O)NC5=O)C6=O)CC4)c(Cl)cc23)CC1` (stereo not drawn) [Compound 97, (Z)-3-(4-(1-(7-(2-(6-Chloro-4-(4-(2-chloro-4-methylpent-2-enoyl)piperazin-1-yl)-8-fluoroquinazolin-7-yl)-3-fluorophenoxy)heptyl)piperidin-4-yl)-6-fluoro-1-oxoisoindolin-2-yl)piperidine-2,6-dione] was tested, and the viability at 10 µM (MOLM-13 cells) was less than 10%, the “Inhibition of H358 cells, IC50 (class)” value (H358 cells) was “B′” and the “Inhibition of H23 cells, IC50 (class)” value (H23 cells) was “B′”.
`C=CC(=O)N1C[C@@H]2C(=O)N(C)c3cnc4c(F)c(-c5c(F)cccc5OCCCCCCCN5CCC(c6cc(F)cc7c6CN(C6CCC(=O)NC6=O)C7=O)CC5)c(Cl)cc4c3N2C[C@H]1C` (stereo partly drawn) [Compound 64, 3-(4-(1-(7-(2-((2R,4aR)-3-Acryloyl-11-chloro-9-fluoro-2,6-dimethyl-5-oxo-2,3,4,4a,5,6-hexahydro-1H-pyrazino[1′,2′:4,5]pyrazino[2,3-c]quinolin-10-yl)-3-fluorophenoxy)heptyl)piperidin-4-yl)-6-fluoro-1-oxoisoindolin-2-yl)piperidine-2,6-dione] was tested, and the viability at 10 µM (MOLM-13 cells) was less than 10%, the “Inhibition of H358 cells, IC50 (class)” value (H358 cells) was “B′” and the “Inhibition of H23 cells, IC50 (class)” value (H23 cells) was “A′”.
